# Data reported in US20190374508A1, “THERAPEUTIC TOPICAL COMPOSITIONS OF APREMILAST” (SARUDBHAVA FORMULATIONS PRIVATE LIMITED, priority 2017, published 2019).
# Tested on: TPA induced ear inflammation
# Assay: 12-O-Tetradecanoylphorbol-13-Acetate (TPA) induced ear inflammation in mice
# Type: in vivo, Male C57BL/6 mice
# Settings: for dose dependence of efficacy: topical test formulation
# Experimental: Efficacy of the test formulations was determined in studies using 12-O-Tetradecanoylphorbol-13-Acetate (TPA) induced ear inflammation in mice. Excessive proliferation of keratinocytes is a characteristic of psoriasis, and this cell type is a well reported target of therapy for this disease. In the present study, chronic skin inflammation was induced by repeated topical application of TPA, which is recognized by prolonged skin reaction & epidermal hyperplasia. The animal model used was Male C57BL/6 mice 6 to 8 weeks of age. Protocol: • a) Animals were randomized based on body weight and divided into six different groups consisting of 8 animals. • b) 20 μL of TPA solution containing 2 μg of TPA in vehicle (2% DMSO and 98% methanol) was applied topically on both ventral and dorsal side (10 μL each side) of the right ear of all the animals except group Group G1 on day 0, 2, 4, 7 and 9. • c) Group G1 and Group G2 were topically treated with placebo gel formulation on right ear. • d) Groups G3, G4 and G5 were topically treated with test compositions comprising apremilast (2% w/w, 4% w/w and 10% w/w concentration). • e) Group G6 was topically treated with 0.1% Betamethasone valerate cream. • f) All the formulations were uniformly applied, 25 mg each (50 mg per animal), in anterior and posterior region of the right ear daily from day 0 to day 10.
compound,measurement,setting,value
"CCOc1cc([C@@H](CS(C)(=O)=O)N2C(=O)c3cccc(NC(C)=O)c3C2=O)ccc1OC [apremilast, N-[2-[(1S)-1-(3-ethoxy-4-methoxyphenyl)-2-(methylsulfonyl)ethyl]-2,3-dihydro-1,3-dioxo-1H-isoin-dol-4-yl]acetamide]",efficacy against ear inflammation,"daily topical application of test formulation on right ear, day 0 to day 10, tested concentrations 2%, 4% and 10% apremilast",effective against ear inflammation
same,reduction on ear edema,topical test formulation containing 2% apremilast,poor reduction on ear edema which tapered off by day-9
same,dose dependence of efficacy,10% concentration of apremilast,saturation of efficacy
same,dose dependence of efficacy,between 2% and 4% apremilast,Dose-dependent increase in efficacy
